Measured values reported in ChEMBL document CHEMBL1201862, “PubChem BioAssay data set” (2004).
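Step 1: Grow cells in 96-well plates. Step 2: Expose to compound for 48 hours at 5 concentrations. Step 3: Interpolate endpoints linearly; if unreached, use highest concentration. GI50 = concentration required for 50% inhibition of growth.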 Active and inactive are the calls of the source. Rule as the data show it: active = GI50 up to about 1.1 µM and inactive = higher.

Legend:
Test in all cases: DTP human tumour cell line panel, 48 h
HOP-62 = tested on: HOP-62
COLO 205 = tested on: COLO 205
SW-620 = tested on: SW-620
KM12 = tested on: KM12
SN12C = tested on: SN12C
UO-31 = tested on: UO-31
SR = tested on: SR
HCT-116 = tested on: HCT-116
CAKI-1 = tested on: CAKI-1
A498 = tested on: A498
U-251 = tested on: U-251
SF-268 = tested on: SF-268
LOX IMVI = tested on: LOX IMVI
T47D = tested on: T47D
MOLT-4 = tested on: MOLT-4
OVCAR-5 = tested on: OVCAR-5
IGROV-1 = tested on: IGROV-1
SNB-19 = tested on: SNB-19
786-0 = tested on: 786-0
DMS-273 = tested on: DMS-273

Row | Structure (SMILES) | GI50 (HOP-62) | GI50 (COLO 205) | GI50 (SW-620) | GI50 (KM12) | GI50 (SN12C) | GI50 (UO-31) | GI50 (SR) | GI50 (HCT-116) | GI50 (CAKI-1) | GI50 (A498) | GI50 (U-251) | GI50 (SF-268) | GI50 (LOX IMVI) | GI50 (T47D) | GI50 (MOLT-4) | GI50 (OVCAR-5) | GI50 (IGROV-1) | GI50 (SNB-19) | GI50 (786-0) | GI50 (DMS-273)
1 | COC(=O)c1c2n(c3ccccc13)C[C@H]1OC(C)(C)O[C@@H]21 | > 100 µM (inactive) | > 100 µM (inactive) | > 100 µM (inactive) | > 43.8 µM (inactive) | > 100 µM (inactive) | > 100 µM (inactive) | > 100 µM (inactive) | > 100 µM (inactive) | > 65.6 µM (inactive) | > 100 µM (inactive) | > 100 µM (inactive) | > 100 µM (inactive) | > 100 µM (inactive) | > 100 µM (inactive) | > 100 µM (inactive) | > 100 µM (inactive) | > 100 µM (inactive) | > 100 µM (inactive) | > 100 µM (inactive) | –
2 | CCC1C(c2ccccc2O)c2cc3c(cc2OC1N1CCOCC1)OCO3 (centres undefined) | 15.4 µM (inactive) | 15.4 µM (inactive) | 15.9 µM (inactive) | 13 µM (inactive) | 15.7 µM (inactive) | 13.9 µM (inactive) | 14.5 µM (inactive) | 13.6 µM (inactive) | 16.6 µM (inactive) | 14.3 µM (inactive) | 13.6 µM (inactive) | 14.7 µM (inactive) | 14.9 µM (inactive) | 13.2 µM (inactive) | 6.44 µM (inactive) | 14.9 µM (inactive) | 15.8 µM (inactive) | 15.3 µM (inactive) | 21.1 µM (inactive) | –
3 | Cc1cccc2c1NC(=O)/C2=N\Nc1ccccc1[N+](=O)[O-] | 3.52 µM (inactive) | 30.4 µM (inactive) | 9.82 µM (inactive) | 6.93 µM (inactive) | 9.89 µM (inactive) | 3.55 µM (inactive) | 2.7 µM (inactive) | 6.82 µM (inactive) | 8.09 µM (inactive) | 19.3 µM (inactive) | 2.37 µM (inactive) | 6.04 µM (inactive) | 3.64 µM (inactive) | 8.83 µM (inactive) | 21.2 µM (inactive) | 26.2 µM (inactive) | 2.37 µM (inactive) | 30.5 µM (inactive) | 4.27 µM (inactive) | –
4 | CCCCC(=O)c1c(O)ccc2c(C)cc(=O)oc12 | > 100 µM (inactive) | > 100 µM (inactive) | > 100 µM (inactive) | > 100 µM (inactive) | > 100 µM (inactive) | 24.8 µM (inactive) | 40.7 µM (inactive) | > 100 µM (inactive) | 68.9 µM (inactive) | 97.7 µM (inactive) | > 100 µM (inactive) | > 100 µM (inactive) | 93.8 µM (inactive) | 14.8 µM (inactive) | 77.1 µM (inactive) | > 100 µM (inactive) | 95.5 µM (inactive) | > 100 µM (inactive) | > 100 µM (inactive) | –
5 | O=C1c2ccccc2CN1c1ccc(OCCN2CCCCC2)cc1 | > 10 µM (inactive) | > 10 µM (inactive) | > 10 µM (inactive) | > 10 µM (inactive) | > 10 µM (inactive) | > 10 µM (inactive) | > 10 µM (inactive) | > 10 µM (inactive) | > 10 µM (inactive) | > 10 µM (inactive) | > 10 µM (inactive) | > 10 µM (inactive) | > 10 µM (inactive) | > 10 µM (inactive) | > 10 µM (inactive) | > 10 µM (inactive) | > 10 µM (inactive) | > 10 µM (inactive) | > 10 µM (inactive) | –
6 | Cc1c(O)c(OC2OC(CO)C(O)C(O)C2O)cc2c1CC[C@@H]1C2(C)C(=O)C[C@]2(C)[C@@H]([C@@](C)(O)C(O)/C=C/C(C)(C)O)[C@H](O)C[C@@]12C (some centres undefined) | > 100 µM (inactive) | > 100 µM (inactive) | > 100 µM (inactive) | > 100 µM (inactive) | > 100 µM (inactive) | > 100 µM (inactive) | > 100 µM (inactive) | > 100 µM (inactive) | > 100 µM (inactive) | > 100 µM (inactive) | > 100 µM (inactive) | > 100 µM (inactive) | > 100 µM (inactive) | > 100 µM (inactive) | > 100 µM (inactive) | > 100 µM (inactive) | > 100 µM (inactive) | > 100 µM (inactive) | > 100 µM (inactive) | –
7 | COc1cc(/C=N\O[Si](C)(C)C(C)(C)C)ccc1O[Si](C)(C)C(C)(C)C | > 100 µM (inactive) | > 100 µM (inactive) | > 100 µM (inactive) | 83.6 µM (inactive) | > 100 µM (inactive) | > 100 µM (inactive) | – | 32.4 µM (inactive) | > 100 µM (inactive) | – | 30 µM (inactive) | 67.9 µM (inactive) | 26.6 µM (inactive) | – | 37.8 µM (inactive) | 33.7 µM (inactive) | > 100 µM (inactive) | 76.9 µM (inactive) | 32.4 µM (inactive) | > 100 µM (inactive)
8 | O=C(NCC(=O)N1CCCC1C(=O)OC(=O)C1CCCN1C(=O)CNC(=O)OCc1ccccc1)OCc1ccccc1 (centres undefined) | 26.2 µM (inactive) | 18.7 µM (inactive) | 76.9 µM (inactive) | 18.2 µM (inactive) | 31.8 µM (inactive) | 65.6 µM (inactive) | 44.5 µM (inactive) | 32.9 µM (inactive) | > 100 µM (inactive) | 73.1 µM (inactive) | 41.8 µM (inactive) | 30.4 µM (inactive) | 17.7 µM (inactive) | 44.9 µM (inactive) | 16.8 µM (inactive) | 29.1 µM (inactive) | 33.8 µM (inactive) | 39.4 µM (inactive) | 47.6 µM (inactive) | –
9 | C[C@]12C=CC(=O)C=C1CC[C@@H]1[C@@H]2C(=O)C[C@@]2(C)[C@H]1CC[C@]2(O)C(=O)CO [PREDNISONE] | > 100 µM (inactive) | > 100 µM (inactive) | > 100 µM (inactive) | > 100 µM (inactive) | > 100 µM (inactive) | > 100 µM (inactive) | > 100 µM (inactive) | 59.8 µM (inactive) | > 100 µM (inactive) | > 100 µM (inactive) | > 100 µM (inactive) | > 100 µM (inactive) | > 100 µM (inactive) | > 100 µM (inactive) | > 100 µM (inactive) | > 100 µM (inactive) | > 100 µM (inactive) | > 100 µM (inactive) | > 100 µM (inactive) | –
10 | CC(=O)[C@]12OC(=O)C3=C1[C@H](CC[C@@H]3C)[C@@H](C)C[C@H]2C=C(C)C | 8.61 µM (inactive) | 8.79 µM (inactive) | 7.55 µM (inactive) | 7.62 µM (inactive) | 8.69 µM (inactive) | 8.22 µM (inactive) | 7.87 µM (inactive) | 6.55 µM (inactive) | 6.49 µM (inactive) | 7.96 µM (inactive) | 7.8 µM (inactive) | 8.47 µM (inactive) | 7.93 µM (inactive) | 6.44 µM (inactive) | 10 µM (inactive) | 8.11 µM (inactive) | 7.35 µM (inactive) | 8.09 µM (inactive) | 8.55 µM (inactive) | –
11 | Cc1cc(NC2=CC(=O)C(=O)c3ccccc32)no1 | 17.6 µM (inactive) | 16.1 µM (inactive) | 4.94 µM (inactive) | 12.6 µM (inactive) | 2.88 µM (inactive) | 7.94 µM (inactive) | 7.16 µM (inactive) | 14.7 µM (inactive) | 5.71 µM (inactive) | 18.7 µM (inactive) | 3.92 µM (inactive) | 15.2 µM (inactive) | 1.84 µM (inactive) | 11.9 µM (inactive) | 8.57 µM (inactive) | 5.5 µM (inactive) | 8.28 µM (inactive) | 16.2 µM (inactive) | 15.1 µM (inactive) | –
12 | Cc1cnc2nc(-c3sccc3C)cc(O)c2c1 | 5.08 µM (inactive) | 3.21 µM (inactive) | 1.91 µM (inactive) | 3.1 µM (inactive) | 10.2 µM (inactive) | 6.25 µM (inactive) | 0.471 µM (active) | 3.33 µM (inactive) | 6.47 µM (inactive) | 23.4 µM (inactive) | 4.86 µM (inactive) | 10.9 µM (inactive) | 7.83 µM (inactive) | > 100 µM (inactive) | 6.18 µM (inactive) | > 24 µM (inactive) | 1.49 µM (inactive) | 2.85 µM (inactive) | 4.1 µM (inactive) | –
13 | COc1cc2cc(C(=O)N3CC(CCl)c4c3cc([N+](C)(C)Cc3ccc([N+](=O)[O-])n3C)c3ccccc43)[nH]c2c(OC)c1OC (centres undefined) | 4.02 µM (inactive) | 0.989 µM (active) | 1.69 µM (inactive) | 2.14 µM (inactive) | 4.54 µM (inactive) | 1.17 µM (inactive) | < 0.0385 µM (active) | 1.48 µM (inactive) | 1.71 µM (inactive) | 0.153 µM (active) | 2.33 µM (inactive) | 2.62 µM (inactive) | 2.31 µM (inactive) | 3.23 µM (inactive) | 1.93 µM (inactive) | 6.05 µM (inactive) | 1.58 µM (inactive) | 3.44 µM (inactive) | 1.33 µM (inactive) | –
14 | CCOC(=O)C1C(=O)CC(C)(O)C(C(=O)OCC)C1c1ccc(OC)cc1 (centres undefined) | > 100 µM (inactive) | > 100 µM (inactive) | > 100 µM (inactive) | > 100 µM (inactive) | > 100 µM (inactive) | > 100 µM (inactive) | > 100 µM (inactive) | > 100 µM (inactive) | > 100 µM (inactive) | > 100 µM (inactive) | > 100 µM (inactive) | > 100 µM (inactive) | > 100 µM (inactive) | > 100 µM (inactive) | > 100 µM (inactive) | > 100 µM (inactive) | > 100 µM (inactive) | > 100 µM (inactive) | > 100 µM (inactive) | –
